The term Kd denotes the constant that tells how readily two partners part at equilibrium.

Structures are written as SMILES.

One series concerns the target Aβ42 (Homo sapiens, UniProt P05067). In words: Grating-Coupled Interferometry (GCI) binding to immobilized Aβ42. The protocol: The Grating‐Coupled Interferometry (GCI) is a widely used analytical technique for characterizing intermolecular interactions. It allows quantitative measurements of both the affinity and the kinetics of the binding events. This high sensitivity label‐free method was exploited to measure the interactions of Aβ42 with Cu‐Ph‐Pep , Ph‐Pep , and Zn‐Ph‐Pep (Figure 5S). Control experiments with pristine MCPTPyP and the peptide GPGKLVFF ( Pep ) were carried out for comparison. The calculated association and dissociation kinetic constants (kon and koff, respectively) and the thermodynamic binding constant (KD), are summarized in Table 1. The obtained values indicate that all the conjugates show good affinities with Aβ42. It is also clear from Table 1 that the peptide moiety is fundamental for the molecular recognition of the Aβ42 peptide.[48] […] Nevertheless, it is important to emphasize that the interaction with Aβ42 is primarily mediated by the peptide rather than by the porphyrin macrocycle. We next investigated whether these peptide derivatives could be employed as molecular probes for the detection of Aβ42 aggregated species. A new set of CD experiments was then carried out with Aβ42 at 20 μM both in the absence and in the presence of the porphyrin‐peptide conjugates at 1 : 1 molar ratio in the UV (195–350) and Visible (350–500) regions. […] The signal rapidly evolved toward the typical β‐sheet profile (already within 24 h) with a single minimum at 216 nm, an x‐axis intercept at 202 nm and a maximum shift at a wavelength 195 nm.[49] […] For the sake of comparison, the CD spectra of the porphyrin‐peptide conjugates at 20 μM were also recorded in the same experimental conditions, both in the far‐UV and Visible regions (Figure 6S).
The experiments were performed on a Creoptix WAVE system (Creoptix). Borate buffer (100 mM sodium borate pH 9.0, 1 M NaCl) was used for chip conditioning. Aβ42 peptide (20 μg/ml in Na Acetate pH 4.5) was immobilized on 4PCH WAVE chips (quasiplanar polycarboxylate surface; Creoptix) according to the manufacturer instructions at a final density of 1910±40 pg/mm^2. Single‐cycle sequential injections of dilution series for each Porphyrin‐Peptide conjugates in running buffer (PBS, 0.005 % Tween 20, 1 % DMSO, 0.2 mg/ml BSA) were performed at 25 °C, using a flow rate of 100 μl/min. In details, for the conjugate Cu‐Ph‐Pep , 1 : 2 dilution series starting from 200 μM were injected for 10 s association time, 45 s dissociation time, followed by a dissociation time of 600 s for the last higher concentration injection. Finally, for the conjugates Ph‐Pep and Zn‐Ph‐Pep , 1 : 2 dilution series starting from 50 μM and 100 uM, respectively, were injected for 30 s association time, 45 s dissociation time, followed by a dissociation time of 600 s for the last higher concentration injection. Blank injections were used for double referencing and a DMSO calibration curve for bulk correction. Analysis and correction of the obtained data were performed using the Creoptix WAVE control software (correction applied: X and Y offset; DMSO calibration; double referencing). Mass transport binding models with bulk correction were used to fit all experiments. All the experiments have been performed at least in triplicate.
Figure 5S. Quantitative binding kinetics of Aβ42 vs a) MCPTPyP; b) Cu-Ph-Pep; c) Ph-Pep; d) Zn-Ph-Pep; and e) Pep measured by GCI. All curves were blank subtracted. Experiments were performed in triplicate. All the quality assessments (i.e., χ2 shown in Table 1 of the main text , parameter errors, and residual plots were acceptable; the sensorgrams had sufficient curvatures an d the kinetic constant k off were within the measurable range) were fulfilled. Descriptive Statistical Analysis was employed to calculate the mean of the obtained values of k on, koff and KD as a measure of central tendency and standard deviations of the former values were computed as a measure of dispersion.
Figure 6S. […]

The test system of the next series is SH-SY5Y. Briefly: Live cell confocal fluorescence imaging. The series is classed as cell-based, human. The settings on record: RA-differentiated SH-SY5Y, 5 μM, 24 h, excitation 405 nm, emission 600–700 nm. The protocol: The intracellular localization of porphyrins in living cells has already been reported in the literature.[50, 51] […] The ability of our compounds to associate with cells or to be taken up by them was investigated by live cell confocal fluorescence and flow cytometry. For this purpose, we exploited the fluorescence of the porphyrin moiety. Fully differentiated SH‐SY5Y cells were exposed to 5 μM of each compound for 24 h, and then fluorescence spectra inside and outside cells were measured as described in the experimental section. The images reported in Figure 6, panel a, show the emission spectra recorded (pixel by pixel) inside cells, compared to the emission spectra recorded for control cells (no porphyrins in the growth medium). A specific porphyrin signal recorded between 600 nm and 700 nm only in the exposed sample, provides evidence that the porphyrin‐conjugated compounds are distributed within the cells. We first measured the emission spectra of each compound to confirm that the fluorescent properties measured in vitro were maintained under the conditions applied during the biological assay. Once the specific emission peak typical of porphyrins was detected inside the cells, we measured the average fluorescence intensity for each compound under study. Although modest, the signal was detected in almost every cell under the microscope stage. […]

Chain of Aβ42 (P05067 672-713 limits assumed): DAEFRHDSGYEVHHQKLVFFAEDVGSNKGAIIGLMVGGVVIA

`C[n+]1ccc(-c2c3nc(c(-c4cc[n+](C)cc4)c4ccc([nH]4)c(-c4cc[n+](C)cc4)c4nc(c(-c5ccc(C(=O)O)cc5)c5ccc2[nH]5)C=C4)C=C3)cc1.[Cl-].[Cl-].[Cl-]` [MCPTPyP, 5‐(4‐carboxyphenyl)‐10,15,20‐(tri‐N‐Methyl‐4‐Pyridyl) Porphyrin trichloride, reference compound] came in with a Kd on Aβ42 (GCI (Creoptix WAVE), Aβ42 immobilized on 4PCH chip, PBS, 0.005 % Tween 20, 1 % DMSO, 0.2 mg/ml BSA, 25 °C, 100 μl/min, mass transport binding model, mean ± SD, at least triplicate) of 215 ± 13 µM. For the same compound, the “χ^2 (average of the squared residuals, fitting confidence)” value on Aβ42 (GCI fit quality parameter) amounted to 0.63±0.06. The “cell entry / intracellular distribution” value in the series with SH-SY5Y was “able to cross the plasma membrane and to distribute within the cells”.

For the origin of these results see paper PMC11610669, “A Spectroscopic Study on the Amyloid‐β Interaction with Clicked Peptide‐Porphyrin Conjugates: a Vision Toward the Detection of Aβ Peptides in Aqueous Solution” (Chembiochem, 2024).
